Data taken from patent publication US20100063282A1, “Glucocorticoid Mimetics, Methods of Making Them, Pharmaceutical Compositions, and Uses Thereof” (BOEHRINGER INGELHEIM INTERNATIONAL GMBH, priority 2007, published 2010).

Legend:
[1] = biological target: T1, human glucocorticoid receptor (GR) complex (Homo sapiens, UniProt P04150); experiment: Glucocorticoid receptor competitive binding assay (fluorescence polarization); settings: competition with TAMRA-labeled dexamethasone, GR-containing baculovirus lysate, 1 hour at room temperature
T1 construct: made in house; host or cells: insect cells (baculovirus expression); used as crude lysate
T1 sequence (P04150 1-777): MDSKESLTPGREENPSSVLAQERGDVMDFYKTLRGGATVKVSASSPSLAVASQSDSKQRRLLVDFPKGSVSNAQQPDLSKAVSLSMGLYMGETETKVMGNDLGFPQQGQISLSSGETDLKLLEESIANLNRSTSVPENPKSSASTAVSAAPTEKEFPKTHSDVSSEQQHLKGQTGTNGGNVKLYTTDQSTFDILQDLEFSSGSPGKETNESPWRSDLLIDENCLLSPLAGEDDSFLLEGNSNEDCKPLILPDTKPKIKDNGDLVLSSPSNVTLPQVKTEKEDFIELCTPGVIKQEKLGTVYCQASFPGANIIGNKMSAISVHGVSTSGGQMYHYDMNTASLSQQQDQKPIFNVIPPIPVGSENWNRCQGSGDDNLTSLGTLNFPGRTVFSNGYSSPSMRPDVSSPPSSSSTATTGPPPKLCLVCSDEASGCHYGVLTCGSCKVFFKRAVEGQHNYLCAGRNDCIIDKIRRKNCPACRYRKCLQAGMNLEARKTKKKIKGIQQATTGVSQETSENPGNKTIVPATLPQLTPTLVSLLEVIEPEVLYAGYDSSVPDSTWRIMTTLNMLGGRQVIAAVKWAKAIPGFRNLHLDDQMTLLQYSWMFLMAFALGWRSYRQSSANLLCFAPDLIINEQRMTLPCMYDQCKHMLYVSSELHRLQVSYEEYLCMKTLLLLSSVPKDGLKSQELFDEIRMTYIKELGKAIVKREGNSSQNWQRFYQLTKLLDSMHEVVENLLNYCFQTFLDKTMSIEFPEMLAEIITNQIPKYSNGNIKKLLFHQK
Description: Compounds of the invention were evaluated for binding to the steroid receptor by a fluorescence polarization competitive binding assay. Detailed descriptions for preparation of recombinant glucocorticoid receptor (GR) complex used in the assay is described in U.S. Patent Application Publication No. US 2003/0017503, filed May 20, 2002, and incorporated herein by reference in its entirety. Preparation of the tetramethylrhodamine (TAMRA)-labeled dexamethasone probe was accomplished using a standard literature procedure (M. Pons et al., J. Steroid Biochem., 1985, 22, pp. 267-273).
The affinity of the probe for the steroid receptor was then determined in a titration experiment. The fluorescence polarization value of the probe in assay buffer was measured on an SLM-8100 fluorometer using the excitation and emission maximum values described above. Aliquots of expression vector lysate were added and fluorescence polarization was measured after each addition until no further change in polarization value was observed. Non-linear least squares regression analysis was used to calculate the dissociation constant of the probe from the polarization values obtained for lysate binding to the probe.
This assay uses fluorescence polarization (FP) to quantitate the ability of test compounds to compete with tetramethylrhodamine (TAMRA)-labeled dexamethasone for binding to a human glucocorticoid receptor (GR) complex prepared from an insect expression system. The assay buffer was: 10 mM TES, 50 mM KCl, 20 mM Na2MoO4.2H2O, 1.5 mM EDTA, 0.04% w/v CHAPS, 10% v/v glycerol, 1 mM dithiothreitol, pH 7.4. Test compounds were dissolved to 1 mM in neat DMSO and then further diluted to 10× assay concentration in assay buffer supplemented with 10% v/v DMSO. Test compounds were serially diluted at 10× assay concentrations in 10% DMSO-containing buffer in 96-well polypropylene plates. Binding reaction mixtures were prepared in 96-well black Dynex microtiter plates by sequential addition of the following assay components to each well: 15 μL of 10× test compound solution, 85 μL of GR-containing baculovirus lysate diluted 1:170 in assay buffer, and 50 μL of 15 nM TAMRA-labeled dexamethasone. Positive controls were reaction mixtures containing no test compound; negative controls (blanks) were reaction mixtures containing 0.7 μM to 2 μM dexamethasone. The binding reactions were incubated for 1 hour at room temperature and then read for fluorescence polarization in the LJL Analyst set to 550 nm excitation and 580 nm emission, with the Rhodamine 561 dichroic mirror installed. IC50 values were determined by iterative non-linear curve fitting of the FP signal data to a 4-parameter logistic equation.

glucocorticoid receptor = experiment: Glucocorticoid receptor function, one or more of the above assays; format: cell-based; settings: in one or more of the above assays, assay not specified
Description: Dexamethasone, a synthetic ligand to the glucocorticoid receptor (GR), induces expression of aromatase in human foreskin fibroblast cells. The activity of aromatase is measured by the conversion of testosterone to estradiol in culture media.
Human foreskin fibroblast cells (ATCC Cat. No. CRL-2429, designation CCD112SK) are plated on 96 well plates at 50,000 cells per well 5 days before use, in Iscove's Modified Dulbecco's Media (GibcoBRL Life Technologies Cat No. 12440-053) supplemented with 10% charcoal filtered FBS (Clonetech Cat No. SH30068) and Gentamycin (GibcoBRL Life Technologies Cat. No. 15710-064). On the day of the experiment, the media in the wells is replaced with fresh media. Cells are treated with test compounds to final concentrations of 10^−5 M to 10^−8 M, and testosterone to a final concentration of 300 ng/mL. Each well has a total volume of 100 μL. Samples are made in duplicates. […] Estradiol in the supernatant is measured using ELISA kits for estradiol (made by ALPCO, obtained from American Laboratory Products Cat. No. 020-DR-2693) according to the manufacture's instruction. […] The extent of aromatase induction by test compounds is expressed as a relative percentage to dexamethasone. […]
Human foreskin fibroblast cells (ATCC Cat. No. CRL-2429) are plated on 96 well plates at 5,000 cells per well the day before use, in Iscove's Modified Dulbecco's Media (GibcoBRL Life Technologies Cat. No. 12440-053) supplemented with 10% charcoal filtered FBS (Clonetech Cat. No. SH30068) and Gentamycin (GibcoBRL Life Technologies Cat. No. 15710-064). […] IL-6 levels in the supernatants are determined by the ELISA kits for IL-6 (MedSystems Diagnostics GmbH, Vienna, Austria, Cat. No. BMS213TEN) according to manufacture's instructions. […]
H4-II-E-C3 cells were incubated overnight in 96 well plates (20,000 cells/100 μL/well) in MEM medium containing 10% heat inactivated FBS and 1% nonessential amino acids. […] After 18 hours, the cells were lysed in a buffer containing 0.1% Triton X-100 and the TAT activity was measured in a photometric assay using tyrosine and alpha-ketoglutarate as substrates. […]

Row | SMILES | IC50 [1] [nM] | activity as an agonist of the glucocorticoid receptor function (glucocorticoid receptor)
1 | Cc1cc(C)c(S(=O)(=O)NC(CNc2cccc3cnccc23)C(F)(F)F)c(C)c1 (centres unmarked) [2,4,6-Trimethyl-N-[2,2,2-trifluoro-1-(isoquinolin-5-ylaminomethyl)ethyl]benzenesulfonamide] | ≤ 100 | –
2 | Cc1cc(C)c(S(=O)(=O)NC(COc2cccc3ncccc23)C(F)(F)F)c(C)c1 (centres unmarked) [2,4,6-Trimethyl-N-[2,2,2-trifluoro-1-(quinolin-5-yloxymethyl)ethyl]benzenesulfonamide] | ≤ 100 | –
3 | Cc1cc(C)c(S(=O)(=O)NC(CSc2ccccn2)C(F)(F)F)c(C)c1 (centres unmarked) [2,4,6-Trimethyl-N-[2,2,2-trifluoro-1-(pyridin-2-ylsulfanylmethyl)ethyl]benzenesulfonamide] | ≤ 100 | –
4 | Cc1cc(C)c(S(=O)(=O)NC(CNc2cccc3ccc(C)nc23)C(F)(F)F)c(C)c1 (centres unmarked) [2,4,6-Trimethyl-N-{2,2,2-trifluoro-1-[(2-methylquinolin-8-ylamino)methyl]ethyl}benzenesulfonamide] | ≤ 100 | –
5 | Cc1cc(C)c(S(=O)(=O)NC(CSc2nc(C)cc(C(F)(F)F)c2C#N)C(F)(F)F)c(C)c1 (centres unmarked) [N-[1-(3-Cyano-6-methyl-4-trifluoromethylpyridin-2-ylsulfanylmethyl)-2,2,2-trifluoroethyl]-2,4,6-trimethylbenzenesulfonamide] | ≤ 100 | –
6 | CC[C@@H](CNc1cccc2cc[nH]c12)NS(=O)(=O)c1c(C)cc(C)cc1C [N—{(S)-1-[(1H-Indol-7-ylamino)methyl]propyl}-2,4,6-trimethylbenzenesulfonamide] | ≤ 100 | –
7 | CC[C@@H](CNc1cccc2[nH]ccc12)NS(=O)(=O)c1c(N)cc(Cl)cc1Cl [2-Amino-4,6-dichloro-N—{(S)-1-[(1H-indol-4-ylamino)methyl]propyl}benzenesulfonamide] | ≤ 100 | shown activity as an agonist
8 | Cc1cc(C)c(S(=O)(=O)NC(CSc2ccc([N+](=O)[O-])cn2)C(F)(F)F)c(C)c1 (centres unmarked) [2,4,6-Trimethyl-N-[2,2,2-trifluoro-1-(5-nitropyridin-2-ylsulfanylmethyl)ethyl]benzenesulfonamide] | ≤ 100 | –
9 | Cc1cc(C)c(S(=O)(=O)NC(CSc2ncccc2C(F)(F)F)C(F)(F)F)c(C)c1 (centres unmarked) [2,4,6-Trimethyl-N-[2,2,2-trifluoro-1-(3-trifluoromethylpyridin-2-ylsulfanylmethyl)ethyl]benzenesulfonamide] | ≤ 100 | –
10 | Cc1cc(C)c(S(=O)(=O)NC(CNc2cccc3ncccc23)C(F)(F)F)c(C)c1 (centres unmarked) [2,4,6-Trimethyl-N-[2,2,2-trifluoro-1-(quinolin-5-ylaminomethyl)ethyl]benzenesulfonamide] | ≤ 100 | –
11 | Cc1cc(C)c(S(=O)(=O)NC(COc2cccc3cnccc23)C(F)(F)F)c(C)c1 (centres unmarked) [2,4,6-Trimethyl-N-[2,2,2-trifluoro-1-(isoquinolin-5-yloxymethyl)ethyl]benzenesulfonamide] | ≤ 100 | –
12 | CC[C@@H](CNc1cccc2[nH]ccc12)NS(=O)(=O)c1c(C)cc(C)cc1C [N—{(S)-1-[(1H-Indol-4-ylamino)methyl]propyl}-2,4,6-trimethylbenzenesulfonamide] | ≤ 100 | shown activity as an agonist
13 | CC[C@@H](CNc1ccc2c(cnn2-c2ccc(F)cc2)c1)NS(=O)(=O)c1c(C)cc(C)cc1C [N—((S)-1-{[1-(4-Fluorophenyl)-1H-indazol-5-ylamino]methyl}propyl)-2,4,6-trimethylbenzenesulfonamide] | ≤ 100 | –
14 | CC[C@@H](CNc1ccc2c(cnn2-c2ccc(F)cc2)c1)NS(=O)(=O)c1c(N)cc(Cl)cc1Cl [2-Amino-4,6-dichloro-N—((S)-1-{[1-(4-fluorophenyl)-1H-indazol-5-ylamino]methyl}propyl)benzenesulfonamide] | ≤ 100 | shown activity as an agonist
